# Test results as given in patent US20220257777A1, “HSP90-BINDING CONJUGATES AND COMBINATION THERAPIES THEREOF” (TVA (ABC), LLC, priority 2019, published 2022).
# Like-named read-outs stand apart in the source and are kept apart here. Marks after values point to notes of the source that are not given here.
# Key:
# [1] = Phase 1/2a study, plasma pharmacokinetics of Conjugate 1 and SN-38; assay type: in vivo, human
# From the text: (§1) In a Phase 1/2a study of Conjugate 1, patients received weekly Conjugate 1 treatment for 3 of 4 weeks in a 28-day cycle. The patients have histologically or cytologically confirmed advanced solid tumors. Their tumor types included anus, breast, cholangiocarcinoma, colon, Ewing sarcoma, liver, lung, neuroendocrine (unknown primary), ovary, pancreas, salivary gland, and sarcoma. They have received one or more prior lines of anticancer therapy. The patients received flat dosings or dosings based on body surface area (BSA). The doses included 30 mg, 60 mg, 120 mg, 240 mg, 360 mg, 175 mg/m^2, and 200 mg/m^2. […] BSA-based dosing will be used for future studies.
# To study pharmacokinetics (PK) profile, multiple plasma samples were collected to measure Conjugate 1 and SN-38 concentrations. […] Elimination half-life was ˜10 hours across all dose ranges. Free SN-38 levels were generally low. AUC is <2% of the conjugate (Conjugate 1) AUC.
# [2] = Tumor exposure of Conjugate 1 and SN-38 in H1975 mouse xenograft model at 24 h; assay type: in vivo; details: for SN-38 in tumor at 24 h: H1975 model; for concentration at 24 h: mouse, in vivo
# [3] = cited from earlier work; for Ratio of tumor level/plasma level: after Onivyde treatment at 72 h; for Amount in Tumor: patient biopsies after Onivyde treatment at 72 h (13 patients); for Amount in Plasma: patients after Onivyde treatment at 72 h (13 patients)
# [4] = Levels of Conjugate 1 and SN-38 in patient tumor biopsy and plasma at 24 h; assay type: in vivo, human
# Method: A pancreatic cancer patient received Conjugate 1 at a dose of 150 mg/m^2 and underwent a tumor biopsy to determine Conjugate 1 and SN-38 levels in tumor and plasma. Samples were taken 24 h after the second dose of 150 mg/m^2 Conjugate 1 from a liver metastasis.
# Conjugate 1 and SN-38 levels in tumor are much higher than the levels in plasma.
# [5] = test system: advanced solid tumors; test: Phase 1/2a study, tumor response; assay type: in vivo, human
# From the text: as §1
# 120-360 mg flat dose and 175 mg/m2 BSA dose were associated with stable disease that was maintained for ≥12 weeks.
# [6] = test system: H1975 (NSCLC) mouse xenograft; test: Efficacy in H1975 (NSCLC) mouse xenograft model; assay type: in vivo
# [7] = Phase 1/2a study, maximum tolerated dose and adverse events; assay type: in vivo, human
# From the text: as §1
# AEs are well-managed with dose modification.
# [8] = patients dosed with Conjugate 1, plasma
compound,measurement,setting,value
"CCc1c2c(nc3ccc(O)cc13)-c1cc3c(c(=O)n1C2)COC(=O)[C@]3(O)CC [SN-38, reference compound]",Free SN-38 AUC as share of the conjugate (Conjugate 1) AUC,[1]; [8],< 2%
same,Free SN-38 levels / systemic exposure to free SN-38,[1]; [8],generally low
same,Free SN-38 levels / systemic exposure to free SN-38,"[1]; patients dosed with Conjugate 1, plasma, listed as SN-28",low
same,SN-38 in tumor at 24 h,[2]; Conjugate 1 50 mg/kg,98 nM
same,SN-38 in tumor at 24 h,[2]; Conjugate 1 100 mg/kg,18.4 nM
same,SN-38 in tumor at 24 h,[2]; Conjugate 1 150 mg/kg,221 nM
same,Ratio of tumor level/plasma level,[3],About 4.2
same,Amount in Tumor,[3],24.5 nM
same,Amount in Plasma,[3],0.0059 µM
same,Amount in Plasma,"[4]; at 24 h, average of 5 patients dosed at 175 mg/m^2 Conjugate 1",25.5* nM
same,Ratio of tumor level/plasma level,"[4]; at 24 h, tumor at 150 mg/m^2, plasma at 175 mg/m^2 Conjugate 1",About 3.4
same,Amount in Tumor,"[4]; pancreatic cancer patient, liver metastasis biopsy, 24 h after the second dose of 150 mg/m^2 Conjugate 1",86.6 nM
"CCc1c2c(nc3ccc(OC(=O)N4CCC(CCn5ccc6cc(-n7c(O)nnc7-c7cc(C(C)C)c(O)cc7O)ccc65)CC4)cc13)-c1cc3c(c(=O)n1C2)COC(=O)[C@]3(O)CC [Conjugate 1, (S)-4,11-diethyl-4-hydroxy-3,14-dioxo-3,4,12,14-tetrahydro-1H-pyrano[3′,4′:6,7]indolizino[1,2-b]quinolin-9-yl 4-(2-(5-(3-(2,4-dihydroxy-5-isopropylphenyl)-5-hydroxy-4H-1,2,4-triazol-4-yl)-1H-indol-1-yl)ethyl)piperidine-1-carboxylate]",Time stable disease was maintained,[5]; 120-360 mg flat dose and 175 mg/m2 BSA dose,≥ 12 weeks
same,Patients achieving partial response (PR; reduction of tumor size by 30% or more),[5]; of the 17 patients who received Conjugate 1 treatment,one
same,half-life,"[1]; human, in vivo, Elimination half-life",~10 h
same,Dose proportionality of PK,"[1]; patients, 30 mg to 200 mg/m^2","non-linear PK at lower doses, but greater proportionality was observed at higher doses"
same,Linker stability in circulation,"[1]; patients, PK analyses",stable in circulation
same,concentration at 24 h,[2]; 50 mg/kg,163 nM
same,concentration at 24 h,[2]; 100 mg/kg,149 nM
same,concentration at 24 h,[2]; 150 mg/kg,4990 nM
same,Efficacy in the xenograft model,[6]; weekly dose of 150 mg/kg,tumor regression
same,Efficacy in the xenograft model,[6]; weekly doses of 72 mg/kg and 100 mg/kg,significant efficacy
same,SN-38 tumor level relative to SN-38 tumor level of patients who received Onivyde,"[4]; human, in vivo, 24 h",about 3.5 fold
same,"Maximum tolerated dose (MTD), monotherapy","[7]; patients with advanced solid tumors, weekly for 3 of 4 weeks in a 28-day cycle",175 mg/m^2
same,Most common AEs,"[7]; patients, Phase 1","nausea, fatigue, diarrhea, vomiting and alopecia"
same,Overall safety / adverse event profile,"[7]; patients, Phase 1",safe and has an expected adverse (AE) event profile
CCc1c2c(nc3ccc(OC(=O)N4CCC(N5CCCCC5)CC4)cc13)-c1cc3c(c(=O)n1C2)COC(=O)[C@]3(O)CC [Irinotecan],Ratio of tumor level/plasma level,[3],About 0.5
same,Ratio of tumor level/plasma level,[3]; listed as irinotecan,about ½
same,Amount in Tumor,[3],4043 nM
same,Amount in Plasma,[3],7.921 µM
